According to patent US20150238444A1, “CHLORHEXIDINE GLUCONATE SOLUBILIZED IN A HYDROPHOBIC MONOACYLGLYCERIDE” (3M INNOVATIVE PROPERTIES COMPANY, priority 2012, published 2015):

Assay: Screening of CHG solubility in hydrophobic vehicles after vacuum-stripping water
Format: physicochemical
Protocol: General Method for Vacuum-Stripping Water from CHG Solutions. A 25 g sample of CHG/water solution (20 wt. CHG) was added to 45 g of the hydrophobic monoacylglyceride of interest in a 200 mL round bottom flask. The flask was put in a 60° C. oil bath and stirred with a magnetic stir bar. Vacuum (less than 3.3 kilopascal (25 Torr)) was pulled until bubbling stopped and the weight had closely approached the theoretical value of 50 grams—usually 30-90 minutes. […] In those cases, after nearly all the water was removed, additional hydrophobic monoacylglyceride was added to bring the final weight to 50 grams.
Screening tests were conducted to determine the solubility of CHG in a variety of hydrophobic vehicles. Samples were prepared by mixing CHG (20 wt. % solution in water, obtained from Xttrium Laboratories Inc., Chicago, Ill.) with the vehicle and vacuum stripping in accordance with the General Method for Vacuum-Stripping Water from CHG Solutions. The resulting concentration of CHG and residual water were determined. Also, the final state of the solution was qualitatively evaluated to determine whether the mixture was transparent and apparently homogenous, or clearly inhomogeneous.

[1] = after vacuum stripping of water from CHG/vehicle mixture

Experimental Solubility with CHG | Final State (CHG 10 wt. %, 23-60° C.) | Water wt. % (residual water) [1] | Molecule | also measured
No | Inhomogeneous | – | Polyglycerol-2-Triisostearate | CHG wt. % (resulting concentration of CHG in the vehicle) [1]: 10% wt. %
No | Inhomogeneous | – | Trigyceryl diisostearate | Final State (CHG 1 wt. %, 23-60° C.): Inhomogeneous
Yes | – | 0.2% wt. % | CCCCCCCCCCCCCCCCCC(=O)OCC(O)CO (stereo not drawn) [Glyceryl monostearate] | Final State (CHG 10 wt. %, 80° C.): Homogeneous
Yes | – | 0.7% wt. % | CCCCCCCCCCCC(=O)OCC(O)CO (stereo not drawn) [Glyceryl monolaurate] | Final State (CHG 20 wt. %, 75° C.): Homogeneous
Yes | Homogeneous | – | CC(C)CCCCCCCCCCCCCCC(=O)OCC(O)CO (stereo not drawn) [Glyceryl monoisostearate] | Final State (CHG 16 wt. %, 23-60° C.): Homogeneous; Final State (CHG 20 wt. %, 60° C.): Homogeneous
Yes | – | – | CCCCCCCC(=O)OCC(O)CO (stereo not drawn) [Glyceryl monocaprylate] | Final State (CHG 20 wt. %, 23-60° C.): Homogeneous

Molecule | Experimental Solubility with CHG | Final State (CHG 10 wt. %, 23-60° C.) | Water wt. % (residual water) [1] | also measured
CCCCCCCC/C=C\CCCCCCCC(=O)OCC(O)CO (stereo not drawn) [Glyceryl monooleate] | Yes | Homogeneous | 0.3% wt. % | –
